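Test compounds were applied to cells in 96-well plates for 48 hours at 5 doses. GI50: concentration for 50% inhibition of growth.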 Active and inactive are the calls of the source. Rule as the data show it: active = GI50 up to about 1.1 µM and inactive = higher.
Assays:
Experiment in all cases: NCI-60 cell line screen, 48 h
[1] = test system: Hs-578T
[2] = test system: A498
[3] = test system: NCI-H522
[4] = test system: OVCAR-4
[5] = test system: Malme-3M
[6] = test system: CAKI-1
[7] = test system: HOP-92
[8] = test system: OVCAR-3
[9] = test system: BT-549
[10] = test system: RXF 393
[11] = test system: UO-31
[12] = test system: MDA-MB-435
[13] = test system: DU-145
[14] = test system: NCI/ADR-RES
[15] = test system: K562
[16] = test system: EKVX
[17] = test system: CCRF-CEM
[18] = test system: SNB-75
[19] = test system: U-251
[20] = test system: MCF7
[21] = test system: MOLT-4
[22] = test system: HCT-116
[23] = test system: MDA-N
[24] = test system: COLO 205
[25] = test system: M14
[26] = test system: OVCAR-8
[27] = test system: SK-MEL-28
[28] = test system: LOX IMVI
[29] = test system: MDA-MB-231
[30] = test system: SN12C
[31] = test system: SF-295
[32] = test system: HT-29
[33] = test system: SR
[34] = test system: NCI-H23
[35] = test system: OVCAR-5
[36] = test system: IGROV-1
[37] = test system: NCI-H460
[38] = test system: ACHN
[39] = test system: UACC-62
[40] = test system: NCI-H226
[41] = test system: UACC-257
[42] = test system: SNB-19
[43] = test system: SK-MEL-5
[44] = test system: SK-OV-3
[45] = test system: HL-60
[46] = test system: HOP-62
[47] = test system: T47D
[48] = test system: 786-0
[49] = test system: SW-620
[50] = test system: HCC 2998
[51] = test system: SF-268
[52] = test system: TK-10
[53] = test system: PC-3
[54] = test system: HCT-15
[55] = test system: A549
[56] = test system: RPMI-8226
[57] = test system: SK-MEL-2
[58] = test system: SF-539
[59] = test system: KM12

## CC1(C)O[C@@H]2[C@@H]3OC(=O)C[C@@H]3[C@@H](COCc3ccccc3)[C@@H]2O1
[1]
  GI50: > 100 µM (inactive)
[2]
  GI50: > 100 µM (inactive)
[3]
  GI50: > 100 µM (inactive)
[4]
  GI50: > 100 µM (inactive)
[5]
  GI50: > 100 µM (inactive)
[6]
  GI50: > 100 µM (inactive)
[7]
  GI50: > 100 µM (inactive)
[8]
  GI50: > 100 µM (inactive)
[9]
  GI50: > 100 µM (inactive)
[10]
  GI50: > 100 µM (inactive)
[11]
  GI50: > 100 µM (inactive)
[12]
  GI50: > 100 µM (inactive)
[13]
  GI50: > 100 µM (inactive)
[14]
  GI50: > 100 µM (inactive)
[15]
  GI50: > 100 µM (inactive)
[16]
  GI50: > 100 µM (inactive)
[17]
  GI50: > 100 µM (inactive)
[18]
  GI50: > 100 µM (inactive)
[19]
  GI50: > 100 µM (inactive)
[20]
  GI50: > 100 µM (inactive)
[21]
  GI50: > 100 µM (inactive)
[22]
  GI50: > 100 µM (inactive)
[23]
  GI50: > 100 µM (inactive)
[24]
  GI50: > 100 µM (inactive)
[25]
  GI50: > 100 µM (inactive)
[26]
  GI50: > 100 µM (inactive)
[27]
  GI50: > 100 µM (inactive)
[28]
  GI50: > 100 µM (inactive)
[29]
  GI50: > 100 µM (inactive)
[30]
  GI50: > 100 µM (inactive)
[31]
  GI50: > 100 µM (inactive)
[32]
  GI50: > 100 µM (inactive)
[33]
  GI50: > 100 µM (inactive)
[34]
  GI50: > 100 µM (inactive)
[35]
  GI50: > 100 µM (inactive)
[36]
  GI50: > 100 µM (inactive)
[37]
  GI50: > 100 µM (inactive)
[38]
  GI50: > 100 µM (inactive)
[39]
  GI50: > 100 µM (inactive)
[40]
  GI50: > 100 µM (inactive)
[41]
  GI50: > 100 µM (inactive)
[42]
  GI50: > 100 µM (inactive)
[43]
  GI50: > 100 µM (inactive)
[44]
  GI50: > 100 µM (inactive)
[45]
  GI50: > 100 µM (inactive)
[46]
  GI50: > 100 µM (inactive)
[47]
  GI50: > 100 µM (inactive)
[48]
  GI50: > 100 µM (inactive)
[49]
  GI50: > 100 µM (inactive)
[50]
  GI50: > 100 µM (inactive)
[51]
  GI50: > 100 µM (inactive)
[52]
  GI50: > 100 µM (inactive)
[53]
  GI50: > 100 µM (inactive)
[54]
  GI50: > 100 µM
[55]
  GI50: > 100 µM (inactive)
[56]
  GI50: > 100 µM (inactive)
[57]
  GI50: > 100 µM (inactive)
[58]
  GI50: > 100 µM (inactive)
[59]
  GI50: > 100 µM (inactive)

— ChEMBL document CHEMBL1201862, “PubChem BioAssay data set” (2004)
